Results from patent US7411069B2 (Hypnion, Inc., priority 2003, dated 2008).
Read-outs that look alike come from different tables or passages of the source. Values belong to the compound of their own block, whether it stands above or below them.

Experiments:
M2 muscarinic receptor = target: T1, M2 muscarinic receptor (Homo sapiens, UniProt P08172); assay: M2 binding assay ([3H]-scopolamine, N-methyl chloride displacement)
T1 construct: purchased PerkinElmer, Inc., Wellesley, Mass; host or cells: CHO cells
T1 sequence (P08172 1-466): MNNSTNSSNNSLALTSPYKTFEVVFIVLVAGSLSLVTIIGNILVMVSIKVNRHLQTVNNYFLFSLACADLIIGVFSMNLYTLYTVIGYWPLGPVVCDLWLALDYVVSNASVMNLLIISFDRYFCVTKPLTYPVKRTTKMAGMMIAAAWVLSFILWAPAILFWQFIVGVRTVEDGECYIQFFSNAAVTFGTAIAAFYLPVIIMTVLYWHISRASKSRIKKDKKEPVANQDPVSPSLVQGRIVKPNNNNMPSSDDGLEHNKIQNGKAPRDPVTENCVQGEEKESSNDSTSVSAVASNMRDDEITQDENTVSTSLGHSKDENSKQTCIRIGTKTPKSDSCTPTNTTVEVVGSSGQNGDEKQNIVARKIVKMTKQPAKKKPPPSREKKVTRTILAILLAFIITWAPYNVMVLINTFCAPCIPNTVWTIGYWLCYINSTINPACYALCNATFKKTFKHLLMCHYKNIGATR

Pharmacokinetics in rats = type: in vivo, rat; conditions: 3 mg/kg
Method: HY2901 was administered to rats, dogs, and cynomolgus monkeys at a dose of 3 mg/kg orally and intravenously. Plasma samples were collected from all species for pharmacokinetic analysis. […] HY2901 is 75% protein bound in rat plasma and 60% protein bound in human plasma.

[1] = Excretion in urine of animal species; type: in vivo
[2] = In vitro rate of metabolism in rat hepatocyte cultures; type: in vitro ADME
Method: (§1) Cytochrome P450 inhibition was studied with HY2901 in vitro. […] In addition, the in vitro rate of metabolism in rat, dog, monkey, and human hepatocyte cultures was determined for HY2901.

[3] = In vitro rate of metabolism in human hepatocyte cultures; type: in vitro ADME
Method: as §1

telemetered Beagle dogs = assay: ECG and arterial blood pressure in telemetered Beagle dogs; type: in vivo, dog
Method: To determine if HY2901 could produce any changes in QT interval, the compound was studied in telemetered Beagle dogs. Dogs were implanted with devices to continuously monitor ECG and arterial blood pressure. Dogs (groups of 4) were studied in a Latin square cross-over design, with each dog receiving 3 different doses and a placebo. Two studies were conducted with doses of 0.3, 1, 3, 10, and 30 mg/kg. […] The tachycardia persisted for 6-8 hours postdose at 0.3 and 1 mg/kg. A ceiling effect to the heart rate increase seemed to exist with heart rates peaking at approximately 150-160 in both the 10 and 30 mg/kg dose groups.

Crl: CD(SD)IGS BR rats = assay: Acute rat study (toxicity and MTD, oral gavage); type: in vivo
Method: The purpose of this study was to evaluate the toxicity and maximum tolerated dose (MTD) of the test articles when given via oral gavage to rats. Male Crl: CD®(SD)IGS BR rats (3/group) were assigned to 5 groups. At initiation of dosing, animals were approximately 7 weeks old with body weights ranging from 172 to 206 g. Each group received either 50, 100, 150, 200, or 250 mg/kg of HY2901 once daily for 5 days. All surviving animals were sacrificed on Day 6. Assessment of toxicity was based on mortality, clinical observations, and body weight data.

purebred Beagles [4] = assay: Acute dog study (toxicity and MTD, escalating oral doses); type: in vivo
Crl:CD(SD)IGS BR rats = assay: 14-Day rat study with recovery; type: in vivo
Method: The purpose of this study was to evaluate the toxicity of HY2901 when administered via oral gavage to rats for at least 14 days and to assess the reversibility, persistence, or delayed occurrence of any effects after a recovery period of up to 14 days.
Male and female Crl:CD®(SD)IGS BR rats were assigned to seven groups, four main study groups and three groups for toxicokinetics. Each group received dose preparations containing 0.25% methylcellulose, 400 cps in 200 mM acetate buffer, or 10, 30, or 150 mg of test article/kg of body weight (mg/kg/day) at a dose volume of 5 mL/kg.
Assessment of toxicity was based on mortality, clinical and ophthalmic observations, body weights, food consumption, clinical pathology, organ weights, and macroscopic and microscopic findings. Blood samples were collected for toxicokinetic evaluation.

purebred Beagles [5] = assay: 14-Day dog study with recovery phase; type: in vivo
Method: The toxicity and the toxicokinetics of HY2901 when administered daily via oral gavage (Phase 1) or capsules (Phase 2) to dogs for at least 14 days was determined. The reversibility, persistence, or delayed occurrence of observable effects following a 7-day (Phase 1) or 14-day (Phase 2) recovery period was also assessed. Doses of 3, 10, 30, and 70 mg/kg/day were studied.

M1 muscarinic receptor = target: T2, M1 muscarinic receptor (Homo sapiens, UniProt P11229); assay: M1 binding assay ([3H]-scopolamine, N-methyl chloride displacement)
T2 construct: purchased PerkinElmer, Inc., Wellesley, Mass; host or cells: CHO cells
T2 sequence (P11229 1-460): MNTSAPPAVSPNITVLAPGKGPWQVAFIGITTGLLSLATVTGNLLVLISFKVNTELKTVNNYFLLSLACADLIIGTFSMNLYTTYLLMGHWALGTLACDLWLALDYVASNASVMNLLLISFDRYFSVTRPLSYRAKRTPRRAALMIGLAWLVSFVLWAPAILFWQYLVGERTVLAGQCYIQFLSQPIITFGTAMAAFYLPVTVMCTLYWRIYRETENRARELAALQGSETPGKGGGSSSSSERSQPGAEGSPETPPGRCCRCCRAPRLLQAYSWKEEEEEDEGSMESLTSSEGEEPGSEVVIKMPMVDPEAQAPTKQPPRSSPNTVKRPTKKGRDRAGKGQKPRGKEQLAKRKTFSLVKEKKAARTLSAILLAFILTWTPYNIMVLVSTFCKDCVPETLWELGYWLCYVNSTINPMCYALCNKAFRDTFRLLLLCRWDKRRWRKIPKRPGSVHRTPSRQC

M3 muscarinic receptor = target: T3, M3 muscarinic receptor (Homo sapiens, UniProt P20309); assay: M3 binding assay ([3H]-scopolamine, N-methyl chloride displacement)
T3 construct: purchased PerkinElmer, Inc., Wellesley, Mass; host or cells: CHO cells

male Wistar rats [6] = type: in vivo; conditions: oral
Method: The Irwin screen can provide useful information on potential side effects of compounds on general physiological and behavioural functions. The screen was conducted by administering the test compounds orally in 0.25% aqueous methylcellulose using male Wistar rats, a frequently used species in such studies and for which background data are readily available.
The Irwin screen tests for numerous parameters in animals that have been administered the test compound. For example, the screen can include: in-cage effects, e.g., dispersion, respiratory rate, locomotor activity, restlessness, fighting, alertness, apathy, and exophthalmus; in-arena effects, e.g., transfer arousal, spatial locomotion, ptosis, startle, tail elevation, piloerection, touch escape, positional passivity, catalepsy, tighting reflex, visual placing, grip strength, pinna, corneal, pain response, and wire manoeuvre; parameters observed in handling, e.g., cyanosis, cutaneous blood flow, hypothermia, body tone, pupil size, light-pupil response, lacrimation, grooming, red staining, salivation, and provoked biting; general scores e.g., fearfulness, irritability, abnormal gait, abnormal body carriage, tremors, twitches, convulsions, bizarre behaviour, writhing, vocalisation, diarrhoea, number of defaecations, number of urinations, moribund, lethality, and abnormalities detected. Further details can be found in Irwin, S; Comprehensive observational assessment: I a. A systematic, quantitative procedure for assessing the behavioural and physiological state of the mouse. […]

hERG channel = hERG channel (Homo sapiens, UniProt Q12809)
male Wistar rats [7] = assay: SCORE-2000 sleep-wakefulness, locomotor activity and body temperature monitoring; conditions: oral, CT-18
H1 histamine receptor = target: T4, H1 histamine receptor (Bos taurus, UniProt P30546); conditions: reference compounds; unit inferred; read-out: Ki, H1 binding assay reference compounds; cited from earlier work
T4 construct: the receptors were obtained from bovine cerebellar membrane tissue; from tissue; host or cells: bovine cerebellar membranes

[8] = 50-250 mg/kg once daily for 5 days

T3 sequence (P20309 whole entry): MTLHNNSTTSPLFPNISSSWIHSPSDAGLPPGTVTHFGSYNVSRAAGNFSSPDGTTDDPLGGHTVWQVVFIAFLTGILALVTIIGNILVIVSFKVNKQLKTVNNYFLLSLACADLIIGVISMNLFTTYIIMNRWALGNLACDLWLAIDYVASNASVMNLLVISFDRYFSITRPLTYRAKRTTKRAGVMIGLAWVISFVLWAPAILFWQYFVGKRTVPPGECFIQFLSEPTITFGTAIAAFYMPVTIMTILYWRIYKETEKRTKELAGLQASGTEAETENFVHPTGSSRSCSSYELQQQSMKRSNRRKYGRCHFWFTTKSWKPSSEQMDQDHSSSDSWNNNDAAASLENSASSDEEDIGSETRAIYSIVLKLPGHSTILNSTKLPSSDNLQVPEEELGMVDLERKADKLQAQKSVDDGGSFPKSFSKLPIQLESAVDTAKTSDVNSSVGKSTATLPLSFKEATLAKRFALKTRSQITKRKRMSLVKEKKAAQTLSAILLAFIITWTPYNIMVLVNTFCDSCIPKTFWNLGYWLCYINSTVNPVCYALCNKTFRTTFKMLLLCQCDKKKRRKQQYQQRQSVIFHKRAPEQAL
Chain of hERG channel (Q12809 whole entry): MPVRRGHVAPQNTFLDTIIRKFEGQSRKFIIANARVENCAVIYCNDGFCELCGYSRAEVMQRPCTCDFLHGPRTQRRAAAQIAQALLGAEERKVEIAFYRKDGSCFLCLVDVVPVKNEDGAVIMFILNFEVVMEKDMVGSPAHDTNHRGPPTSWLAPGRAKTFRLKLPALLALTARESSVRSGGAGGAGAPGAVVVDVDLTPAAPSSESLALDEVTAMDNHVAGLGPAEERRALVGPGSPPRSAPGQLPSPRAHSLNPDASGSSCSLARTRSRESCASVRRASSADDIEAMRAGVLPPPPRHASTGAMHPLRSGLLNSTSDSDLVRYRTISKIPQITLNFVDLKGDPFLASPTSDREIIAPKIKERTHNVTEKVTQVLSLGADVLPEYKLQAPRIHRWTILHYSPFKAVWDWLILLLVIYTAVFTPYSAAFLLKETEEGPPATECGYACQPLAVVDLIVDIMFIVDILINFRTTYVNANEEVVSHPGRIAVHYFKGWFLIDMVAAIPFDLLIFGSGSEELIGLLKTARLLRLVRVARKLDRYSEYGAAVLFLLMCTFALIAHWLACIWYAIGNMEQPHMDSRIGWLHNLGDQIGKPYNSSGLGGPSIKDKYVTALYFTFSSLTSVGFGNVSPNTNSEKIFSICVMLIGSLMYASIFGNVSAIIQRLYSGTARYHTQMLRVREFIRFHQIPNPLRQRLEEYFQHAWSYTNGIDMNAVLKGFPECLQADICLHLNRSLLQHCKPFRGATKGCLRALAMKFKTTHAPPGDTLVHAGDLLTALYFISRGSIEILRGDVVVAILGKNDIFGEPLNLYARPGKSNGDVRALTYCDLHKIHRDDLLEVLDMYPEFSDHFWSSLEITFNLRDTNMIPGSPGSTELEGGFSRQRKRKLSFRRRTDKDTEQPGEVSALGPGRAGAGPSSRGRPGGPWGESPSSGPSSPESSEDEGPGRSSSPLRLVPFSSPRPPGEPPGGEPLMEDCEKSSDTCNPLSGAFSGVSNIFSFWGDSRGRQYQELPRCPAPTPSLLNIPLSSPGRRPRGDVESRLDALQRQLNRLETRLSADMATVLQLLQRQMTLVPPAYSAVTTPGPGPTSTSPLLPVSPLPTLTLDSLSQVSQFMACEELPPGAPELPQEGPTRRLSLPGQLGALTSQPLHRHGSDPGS
T4 sequence (P30546 whole entry): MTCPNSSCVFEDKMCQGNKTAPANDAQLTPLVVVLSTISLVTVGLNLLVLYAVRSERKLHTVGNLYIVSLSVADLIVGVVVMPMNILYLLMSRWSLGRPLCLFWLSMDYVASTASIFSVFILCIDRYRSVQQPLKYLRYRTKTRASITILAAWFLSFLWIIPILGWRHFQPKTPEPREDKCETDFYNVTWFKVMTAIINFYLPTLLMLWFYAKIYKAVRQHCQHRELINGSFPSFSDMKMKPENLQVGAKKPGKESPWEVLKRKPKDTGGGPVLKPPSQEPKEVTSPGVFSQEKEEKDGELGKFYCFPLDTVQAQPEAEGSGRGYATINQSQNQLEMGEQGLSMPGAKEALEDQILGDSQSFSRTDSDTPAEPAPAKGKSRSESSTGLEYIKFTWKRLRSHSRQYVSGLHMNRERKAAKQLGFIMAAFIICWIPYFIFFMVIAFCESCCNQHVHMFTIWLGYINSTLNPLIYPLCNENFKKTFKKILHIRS

Structure (SMILES): C[N+]1(C)C2CC(OC(=O)C(CO)c3ccccc3)CC1C1OC12.[Br-] (single isomer, unassigned; (-)) [scopolamine, MethylBr, (−)-scopolamine, methyl-, bromide, reference compound]
- Slope, M2 binding curve (M2 muscarinic receptor): −0.89

Structure (SMILES): CC(C)(CN1CCC(=C2c3ccc(F)cc3COc3ccccc32)CC1)C(=O)O [Compound 49a]
- absorption after oral administration (Pharmacokinetics in rats; all species (rat, dog, cynomolgus monkey)): rapidly and highly absorbed
- Peak plasma levels (Pharmacokinetics in rats; rats, most efficacious dose in the sleep assay): less than 1.5 mM
- drug and metabolites in urine [1]: Unchanged HY2901, as well as metabolites, has been found in the urine
- metabolism by hepatocytes [2]: extensively metabolized
- metabolism by hepatocytes [3]: little metabolism
- changes in QT or corrected QT interval (telemetered Beagle dogs; 0.3, 1, 3, 10 and 30 mg/kg, any dose): no changes
- heart rate effect (telemetered Beagle dogs; 0.3-30 mg/kg, intravenous or oral): dose-related sinus tachycardia
- persistence of tachycardia postdose (telemetered Beagle dogs; 0.3 and 1 mg/kg): 6 to 8 h
- peak heart rate (telemetered Beagle dogs; 10 and 30 mg/kg dose groups): 150-160
- persistence of sinus tachycardia (telemetered Beagle dogs; higher doses): 10 to 12 h
- blood pressure (telemetered Beagle dogs; paralleled the tachycardia): slight increase
- hypoactivity (Crl: CD(SD)IGS BR rats; [8]): observed in all rats
- incidence and duration of ataxia (Crl: CD(SD)IGS BR rats; [8]): dose-response relationship was observed
- Day 6 body weights (Crl: CD(SD)IGS BR rats; two 250 mg/kg rats): slightly decreased
- clinical signs (purebred Beagles [4]; 25 mg/kg): No clinical signs of toxicity
- clinical signs (purebred Beagles [4]; 40 mg/kg on Day 5): body tremors, mild to moderate ataxia, excessive salivation and hypoactivity
- clinical signs (purebred Beagles [4]; 50 mg/kg): Body tremors, mild to severe ataxia, and hypoactivity
- clinical signs (purebred Beagles [4]; 75 mg/kg): Tremors (entire body, hind limbs, and/or head), mild to moderate ataxia, hypoactivity
- effect on body weight (purebred Beagles [4]; dog, in vivo): minimal effect
- food consumption (Crl:CD(SD)IGS BR rats; 150 mg/kg/day rats, Week 1): depression in food consumption
- unscheduled deaths (Crl:CD(SD)IGS BR rats; 10, 30, 150 mg/kg/day): largely restricted to the 150 mg/kg/day groups
- increases in Cmax and AUC(0-t) with dose (Crl:CD(SD)IGS BR rats; 10 to 150 mg/kg/day, except Cmax at 150 mg/kg/day on Day 14): greater than dose proportional
- ophthalmic observations (Crl:CD(SD)IGS BR rats; any group): No ophthalmic lesions
- clinical observations (purebred Beagles [5]; 3 mg/kg/day, Phase 1): no treatment-related clinical observations
- survival (purebred Beagles [5]; Beagle, dog, in vivo, 14 days): survived until scheduled sacrifice
- clinical pathology data (purebred Beagles [5]; Phase 1 and 2): no evidence in the clinical laboratory data of an effect
- clinical observations (purebred Beagles [5]; Phase 2): treatment-related head tremors, ataxia, hypoactivity, and excessive salivation

- Ki (M1 muscarinic receptor): > 10 µM
- Ki (M2 muscarinic receptor): > 10 µM
- Ki (M3 muscarinic receptor): > 10 µM
Structure (SMILES): CC(C)(CN1CCC(=C2c3ccccc3COc3ccccc32)CC1)C(=O)O [Compound 69a]

- Ki (M3 muscarinic receptor): > 10 µM
Structure (SMILES): CC(C)(CCN1CCC(=C2c3ccccc3COc3ccccc32)CC1)C(=O)O [Compound 70a]

Structure (SMILES): O=C(O)C1(CCN2CCC(=C3c4ccccc4COc4ccccc43)CC2)CC1 [Compound 70b]
- Side effects in Irwin screen (male Wistar rats [6]; 10 mg/kg dose): clean
- Side effects in Irwin screen (male Wistar rats [6]; 30 mg/kg dose): clean
- Side effects in Irwin screen (male Wistar rats [6]; 100 mg/kg dose): some side effects
- hERG blocking (hERG channel): 50.2%
- LUSB (male Wistar rats [7]; dose 10 mg/kg): 8.3 min
- NREM (male Wistar rats [7]; dose 10 mg/kg): 33.7 min
- LUSB (male Wistar rats [7]; dose 30 mg/kg): 13.8 min
- NREM (male Wistar rats [7]; dose 30 mg/kg): 43.2 min

Structure (SMILES): CN(C)CCCSC(=N)N [dimaprit]
- Ki (H1 histamine receptor): > 10 µM
